test: in vitro; conditions: human, Caco-2
Protocol: The Pc of some model compounds, for which the bioavailability in humans is known, was also determined in the same experiment.

SMILES | Papp [×10⁻⁶ cm/s]
O=C(O)c1ccccc1O [salicylic acid, reference compound] | > 20
CC(=O)Nc1ccc(O)cc1 [acetaminophen, reference compound] | > 20
CC(C)Cc1ccc(C(C)C(=O)O)cc1 (stereo not drawn) [ibuprofen, reference compound] | > 20

From patent USRE40387E1, “Pharmaceutical compositions, dosage forms and methods for oral administration of epothilones” (Bristol-Myers Squibb Company, priority 2001, dated 2008)
